In US11292788B2, “IL-17 and IFN-gamma inhibition for the treatment of autoimmune diseases and chronic inflammation” (Immunic AG, priority 2017, dated 2022):
Converted amounts (≈) assume the structure as drawn. Read-outs that look alike come from different tables or passages of the source.

Columns and labels:
[1] = system: IL-17F; assay: Cytokine assay: IL-17F production by human PBMC stimulated with PHA; assay type: cell-based; conditions: IC50 class, read-out: IL-17F Inhib.
How it was run: (§1)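 Human donor PBMC (1×10^5 cells/well) were activated with 2 μg/ml PHA and exposed to compounds for 48 h. Supernatant IL-17A, IL-17F and IFN-γ were measured by Luminex or ELISA. Screening used 10, 1, 0.1 and 0.01 μM; IC50 values came from semilogarithmic titrations.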

[2] = Microsomal stability: incubation with human liver microsomes, residual parent compound by HPLC-MS/MS; assay type: in vitro ADME; conditions: human liver microsomes 0.5 mg/ml, compound 1 μM, pH 7.4, 37° C., up to 60 min; for half-life at 1 μM: read-out: t1/2 hLM
How it was run: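 Compound at 1 μM final with 0.5 mg/ml pooled human liver microsomes and NADPH regenerating system, 0.1 M potassium phosphate pH 7.4, 0.4% DMSO, 37° C, sampled up to 60 min. Residual parent measured by HPLC-MS/MS; half-life and clearance from slope of remaining % of T0.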

[3] = system: INF-γ; assay: Cytokine assay: INF-γ production by human PBMC stimulated with PHA; assay type: cell-based; conditions: IC50 class, read-out: IFN-gamma Inhib.
How it was run: as §1

[4] = Aqueous solubility in 50 mM phosphate buffer (HPLC/DAD); assay type: physicochemical; conditions: aqueous solubility class; for solubility at 24 h: 50 mM phosphate buffer, 23 °C, pH 7.4, aqueous buffer, kinetic from dmso stock, read-out: aq. solub.
Method: To achieve this, the samples (final volume 500 μl, 200 μM compound concentration) were incubated for 24 hours at 23° C. under continuous shaking at 1400 rpm (Thermomixer, Eppendorf) in aqueous phosphate buffers (pH 4.0, 6.0, 7.4 and 9.0) with a final DMSO concentration of 1%. To separate the undissolved compound from the solution, the samples were centrifuged (30 min 18000 g at 23° C.). Supernatants were measured via HPLC equipped with a UV detector and concentrations were calculated according to signals of a standard curve. The standard curve was prepared by diluting a stock solution of each compound (c=0.1 mg/ml; received by adding 10 μl of 20 mM compound in DMSO to 914 μl MeCN) in a certain amount of MeCN to cover a range of 0.1 to 200 μg/ml.

[5] = system: IL-17A; assay: Cytokine assay: IL-17A production by human PBMC stimulated with PHA; assay type: cell-based; conditions: IC50 class, read-out: IL-17A Inhib.
How it was run: as §1

| SMILES | IC50 ([1]; Homo sapiens, PBMC) [nM] | half-life at 1 μM [2] [min] | IC50 ([3]; Homo sapiens, PBMC) [nM] | solubility at 24 h [4] [µM] | IC50 ([5]; Homo sapiens, PBMC) [nM] | IC50 [1] [nM] | IC50 [3] [nM] | aq. solub. [4] | IC50 [5] [nM] | t1/2 hLM [2] |
| --- | --- | --- | --- | --- | --- | --- | --- | --- | --- | --- |
| CC(C)(O)Cn1ncc(-c2onc(-c3c(F)cccc3Cl)c2-c2nccs2)c1C(F)(F)F [Example 1, 1-(4-(3-(2-chloro-6-fluorophenyl)-4-(thiazol-2-yl)isoxazol-5-yl)-5-(trifluoromethyl)-1H-pyrazol-1-yl)-2-methylpropan-2-ol] | 50 to 500 | > 100 | < 50 | > 10 | 50 to 500 | – | – | – | – | – |
| OC1(Cn2ncc(-c3onc(-c4c(F)cccc4Cl)c3-c3nccs3)c2C(F)(F)F)CC1 [Example 2, 1-((4-(3-(2-chloro-6-fluorophenyl)-4-(thiazol-2-yl)isoxazol-5-yl)-5-(trifluoromethyl)-1H-pyrazol-1-yl)methyl)cyclopropanol] | 50 to 500 | 10 to 40 | < 50 | 3 to 9.99 (≈ 1.45 to 4.84 µg/mL) | < 50 | – | – | – | – | – |
| CCOC(=O)c1c(-c2c(F)cccc2Cl)noc1-c1cnn(CC(C)(C)O)c1C(F)(F)F [Example 8, ethyl 3-(2-chloro-6-fluorophenyl)-5-(1-(2-hydroxy-2-methylpropyl)-5-(trifluoromethyl)-1H-pyrazol-4-yl)isoxazole-4-carboxylate] | 50 to 500 | > 100 | < 50 | 3 to 9.99 (≈ 1.43 to 4.75 µg/mL) | < 50 | – | – | – | – | – |
| CCOC(=O)c1c(-c2c(F)cccc2Cl)noc1-c1cnn(CCC(C)(C)O)c1C(F)(F)F [Example 9, ethyl 3-(2-chloro-6-fluorophenyl)-5-[1-(3-hydroxy-3-methylbutyl)-5-(trifluoromethyl)-1H-pyrazol-4-yl]-1,2-oxazole-4-carboxylate] | < 50 | 40 to 100 | < 50 | 3 to 9.99 (≈ 1.47 to 4.89 µg/mL) | < 50 | – | – | – | – | – |
| CCOC(=O)c1c(-c2c(F)cccc2Cl)noc1-c1cnn([C@H]2C[C@@](C)(O)C2)c1C(F)(F)F [Example 10, ethyl 3-(2-chloro-6-fluorophenyl)-5-[1-(3-hydroxy-3-methylcyclobutyl)-5-(trifluoromethyl)-1H-pyrazol-4-yl]-1,2-oxazole-4-carboxylate] | < 50 | > 100 | < 50 | 3 to 9.99 (≈ 1.46 to 4.87 µg/mL) | < 50 | – | – | – | – | – |
| CCOC(=O)c1c(-c2c(F)cccc2Cl)noc1-c1cnn(C[C@@H](C)O)c1C(F)(F)F [Example 12, ethyl 3-(2-chloro-6-fluorophenyl)-5-{1-[(2R)-2-hydroxypropyl]-5-(trifluoromethyl)-1H-pyrazol-4-yl}-1,2-oxazole-4-carboxylate] | < 50 | 10 to 40 | < 50 | > 10 | < 50 | – | – | – | – | – |
| CCOC(=O)c1c(-c2c(F)cccc2Cl)noc1-c1cnn(C[C@H](C)O)c1C(F)(F)F [Example 13, ethyl 3-(2-chloro-6-fluorophenyl)-5-(1-((2S)-2-hydroxypropyl)-5-(trifluoromethyl)-1H-pyrazol-4-yl)-1,2-oxazole-4-carboxylate] | < 50 | 40 to 100 | < 50 | > 10 | < 50 | – | – | – | – | – |
| COC(=O)c1c(-c2c(F)cccc2Cl)noc1-c1cnn(CCC(C)(C)O)c1C [Example 20, methyl 3-(2-chloro-6-fluorophenyl)-5-[1-(3-hydroxy-3-methylbutyl)-5-methyl-1H-pyrazol-4-yl]-1,2-oxazole-4-carboxylate] | < 50 | > 100 | < 50 | > 10 | < 50 | – | – | – | – | – |
| COC(=O)c1c(-c2c(F)cccc2Cl)noc1-c1cnn([C@H]2C[C@](C)(O)C2)c1C(F)(F)F [Example 26, methyl 3-(2-chloro-6-fluorophenyl)-5-(1-(3-hydroxy-3-methylcyclobutyl)-5-(trifluoromethyl)-1H-pyrazol-4-yl)isoxazole-4-carboxylate] | – | 40 to 100 | – | – | – | 500 to 5000 | 500 to 5000 | + (+: 1-2.99 μM) | 500 to 5000 | – |
| COC(=O)c1c(-c2c(F)cccc2Cl)noc1-c1cnn([C@H]2C[C@](C)(O)C2)c1C(F)(F)F [Example 27, methyl 3-(2-chloro-6-fluorophenyl)-5-(1-(3-hydroxy-3-methylcyclobutyl)-5-(trifluoromethyl)-1H-pyrazol-4-yl)isoxazole-4-carboxylate] | – | – | – | – | – | < 50 | < 50 | ++ (++: 3-9.99 μM) | < 50 | ++ (++: 40-100 min) |
| CC(=O)c1c(-c2c(F)cccc2Cl)noc1-c1cnn(C[C@@H](C)O)c1C(F)(F)F [Example 35, 1-[3-(2-chloro-6-fluorophenyl)-5-{1-[(2R)-2-hydroxypropyl]-5-(trifluoromethyl)-1H-pyrazol-4-yl}-1,2-oxazol-4-yl]ethan-1-one] | 50 to 500 | 40 to 100 | 50 to 500 | > 10 | 50 to 500 | – | – | – | – | – |
| C[C@@H](O)Cn1ncc(-c2onc(-c3c(F)cccc3Cl)c2C(=O)NC2CCCC2)c1C(F)(F)F [Example 44, 3-(2-chloro-6-fluorophenyl)-N-cyclopentyl-5-{1-[1-(2R)-2-hydroxypropyl]-5-(trifluoromethyl)-1H-pyrazol-4-yl}-1,2-oxazole-4-carboxamide] | 500 to 5000 | 2 to 9.99 | 50 to 500 | > 10 | 50 to 500 | – | – | – | – | – |
| C[C@]1(O)C[C@H](n2ncc(-c3onc(-c4ccccc4Cl)c3C(=O)OC3CC3)c2C(F)(F)F)C1 [Example 49, cyclopropyl 3-(2-chlorophenyl)-5-(1-(3-hydroxy-3-methylcyclobutyl)-5-(trifluoromethyl)-1H-pyrazol-4-yl)isoxazole-4-carboxylate] | – | > 100 | – | 1 to 2.99 (≈ 0.482 to 1.44 µg/mL) | – | < 50 | < 50 | – | < 50 | – |
| CC(C)(O)Cn1ncc(-c2onc(-c3c(F)cccc3Cl)c2C(=O)OC2CCC2)c1C(F)(F)F [Example 56, cyclobutyl 3-(2-chloro-6-fluorophenyl)-5-[1-(2-hydroxy-2-methylpropyl)-5-(trifluoromethyl)-1H-pyrazol-4-yl]-1,2-oxazole-4-carboxylate] | < 50 | 2 to 9.99 | < 50 | 1 to 2.99 (≈ 0.502 to 1.5 µg/mL) | < 50 | – | – | – | – | – |
| C[C@H](O)Cn1ncc(-c2onc(-c3c(F)cccc3Cl)c2C(=O)OC2CC2)c1C(F)(F)F [Example 59, cyclopropyl 3-(2-chloro-6-fluorophenyl)-5-{1-[(2S)-2-hydroxypropyl]-5-(trifluoromethyl)-1H-pyrazol-4-yl}-1,2-oxazole-4-carboxylate] | < 50 | 10 to 40 | < 50 | > 10 | < 50 | – | – | – | – | – |
| C[C@H](O)Cn1ncc(-c2onc(-c3c(F)cccc3Cl)c2C(=O)OC2COC2)c1C(F)(F)F [Example 60, oxetan-3-yl 3-(2-chloro-6-fluorophenyl)-5-{1-[(2S)-2-hydroxypropyl]-5-(trifluoromethyl)-1H-pyrazol-4-yl}-1,2-oxazole-4-carboxylate] | 50 to 500 | 10 to 40 | 50 to 500 | > 10 | 50 to 500 | – | – | – | – | – |
